According to patent US8614206B2 (Genentech, Inc., priority 2011, dated 2013):

Target: PIM1 (Homo sapiens (Human), UniProt P11309)
Assay: Pim kinase inhibition, PIM1 LC3K (Example 901)
Format: biochemical
Description: Determination of the Pim kinase activity of a Formula I compound is possible by a number of direct and indirect detection methods.

Chain of PIM1 (P11309 whole entry): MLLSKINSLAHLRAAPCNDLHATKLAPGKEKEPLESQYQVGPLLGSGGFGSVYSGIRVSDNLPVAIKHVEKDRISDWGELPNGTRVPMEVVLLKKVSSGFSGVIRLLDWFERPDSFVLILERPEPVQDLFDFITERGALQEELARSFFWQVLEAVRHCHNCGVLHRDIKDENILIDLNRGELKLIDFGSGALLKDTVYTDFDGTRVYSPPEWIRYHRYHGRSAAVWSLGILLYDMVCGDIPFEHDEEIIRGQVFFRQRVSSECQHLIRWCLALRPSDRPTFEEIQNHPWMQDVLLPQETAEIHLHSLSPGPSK

Row | Structure (SMILES) | Ki [nM]
1 | Cn1ncc(NC(=O)c2nc(-c3ccccc3F)ccc2N)c1N1CCC(N)C(F)CC1 (single isomer, unassigned) [Example 246, 3-amino-N-(5-(4-amino-5-fluoroazepan-1-yl)-1-methyl-1H-pyrazol-4-yl)-6-(2-fluorophenyl)picolinamide] | 0.149
2 | COC1CCN(c2c(NC(=O)c3nc(-c4c(F)cccc4F)sc3N)cnn2C2CC2)CCC1N (single isomer, unassigned) [Example 402, 5-amino-N-[5-(4-amino-5-methoxy-azepan-1-yl)-1-cyclopropyl-pyrazol-4-yl]-2-(2,6-difluorophenyl)thiazole-4-carboxamide] | 0.126
3 | Nc1sc(-c2c(F)cccc2F)nc1C(=O)Nc1cnn(CC(F)F)c1N1CCCC(O)CC1 (stereo not drawn) [Example 110, 5-Amino-N-(1-(2,2-difluoroethyl)-5-(4-hydroxyazepan-1-yl)-1H-pyrazol-4-yl)-2-(2,6-difluorophenyl)thiazole-4-carboxamide] | 0.166
4 | Nc1sc(-c2c(F)cccc2F)nc1C(=O)Nc1cnn(CC(F)(F)F)c1N1CCCCC(N)C1 (stereo not drawn) [Example 302, 5-Amino-2-(2,6-difluoro-phenyl)-thiazole-4-carboxylic acid [5-(3-amino-azepan-1-yl)-1-(2,2,2-trifluoro-ethyl)-1H-pyrazol-4-yl]-amide] | 0.175
5 | Cn1ncc(NC(=O)c2nc(-c3ncccc3F)sc2N)c1N1CC[C@H](N)[C@@H](F)CC1 [Example 269, 5-amino-N-(5-((4S,5S)-4-amino-5-fluoroazepan-1-yl)-1-methyl-1H-pyrazol-4-yl)-2-(3-fluoropyridin-2-yl)thiazole-4-carboxamide] | 0.091
6 | Cc1ccc(F)c(-c2nc(C(=O)Nc3cnn(C)c3N3CC[C@@H](F)[C@@H](N)CC3)c(N)s2)c1 [Example 272, 5-amino-N-(5-((4S,5R)-4-amino-5-fluoroazepan-1-yl)-1-methyl-1H-pyrazol-4-yl)-2-(2-fluoro-5-methylphenyl)thiazole-4-carboxamide] | 0.147
7 | Cc1ccc(F)c(-c2nc(C(=O)Nc3cnn(C)c3N3CC[C@H](N)CC(F)(F)C3)c(N)s2)c1 [Example 284, (S)-5-amino-N-(5-(5-amino-3,3-difluoroazepan-1-yl)-1-methyl-1H-pyrazol-4-yl)-2-(2-fluoro-5-methylphenyl)thiazole-4-carboxamide] | 0.015
8 | Nc1sc(-c2cc(F)ccc2F)nc1C(=O)Nc1cnn(C2CC2)c1N1CCC(N)C(F)CC1 (stereo not drawn) [Example 338, 5-amino-N-[5-(4-amino-5-fluoro-azepan-1-yl)-1-cyclopropyl-pyrazol-4-yl]-2-(2,5-difluorophenyl)thiazole-4-carboxamide] | 0.159
9 | Cn1ncc(NC(=O)c2nc(-c3ccccc3F)cnc2N)c1N1CCC(N)CC(F)(F)C1 (racemic) [Example 293, 3-amino-N-(5-(5-amino-3,3-difluoroazepan-1-yl)-1-methyl-1H-pyrazol-4-yl)-6-(2-fluorophenyl)pyrazine-2-carboxamide] | 0.023
10 | Cn1ncc(NC(=O)c2nc(-c3ccccc3F)ccc2N)c1N1CC[C@H](N)CC(F)(F)C1 (stereo in doubt) [Example 249, 3-amino-N-(5-(5-amino-3,3-difluoroazepan-1-yl)-1-methyl-1H-pyrazol-4-yl)-6-(2-fluorophenyl)picolinamide] | 0.02
11 | Nc1sc(-c2c(F)cccc2F)nc1C(=O)Nc1cnn(CC(F)F)c1N1CC[C@@H](N)CC(F)(F)C1 [Example 281] | 0.02
12 | Cn1ncc(NC(=O)c2nc(-c3ccccc3F)ccc2N)c1N1CCC(N)C(F)CC1 (single isomer, unassigned) [Example 245, 3-amino-N-(5-(4-amino-5-fluoroazepan-1-yl)-1-methyl-1H-pyrazol-4-yl)-6-(2-fluorophenyl)picolinamide] | 0.173
13 | CCn1ncc(NC(=O)c2nc(-c3ccccc3F)sc2N)c1N1CCC(N)C(F)CC1 (single isomer, unassigned) [Example 374, 5-amino-N-[5-(4-amino-5-fluoro-azepan-1-yl)-1-ethyl-pyrazol-4-yl]-2-(2-fluorophenyl)thiazole-4-carboxamide] | 0.346
14 | Cc1noc(C)c1-c1nc(C(=O)Nc2cnn(C)c2N2CCC[C@H](N)CC2)c(N)s1 [Example 421, 5-amino-N-[5-[(4S)-4-aminoazepan-1-yl]-1-methyl-pyrazol-4-yl]-2-(3,5-dimethylisoxazol-4-yl)thiazole-4-carboxamide] | 4.37
15 | Cc1nn(C)cc1-c1nc(C(=O)Nc2cnn(C)c2N2CC[C@@H](N)[C@H](F)CC2)c(N)s1 [Example 437, 5-amino-N-[5-[(4R,5R)-4-amino-5-fluoro-azepan-1-yl]-1-methyl-pyrazol-4-yl]-2-(1,3-dimethylpyrazol-4-yl)thiazole-4-carboxamide] | 0.477
16 | Nc1sc(-c2c(F)cccc2F)nc1C(=O)Nc1cnn(C2CC2)c1N1CCC(N)C(F)CC1 (single isomer, unassigned) [Example 332, 5-amino-N-[5-(4-amino-5-fluoro-azepan-1-yl)-1-cyclopropyl-pyrazol-4-yl]-2-(2,6-difluorophenyl)thiazole-4-carboxamide] | 0.148
17 | Nc1sc(-c2c(F)cccc2F)nc1C(=O)Nc1cnn(CC(F)F)c1N1CC[C@H](N)CC(F)(F)C1 (single isomer, unassigned) [Example 280] | 0.01
18 | Cn1ncc(NC(=O)c2nc(-c3ccccc3F)cnc2N)c1N1CCC(N)C(F)CC1 (single isomer, unassigned) [Example 244, 3-amino-N-(5-(4-amino-5-fluoroazepan-1-yl)-1-methyl-1H-pyrazol-4-yl)-6-(2-fluorophenyl)pyrazine-2-carboxamide] | 0.141
19 | Nc1sc(-c2cc(F)ccc2F)nc1C(=O)Nc1cnn(C2CC2)c1N1CCC(N)C(F)CC1 (stereo not drawn) [Example 339, 5-amino-N-[5-(4-amino-5-fluoro-azepan-1-yl)-1-cyclopropyl-pyrazol-4-yl]-2-(2,5-difluorophenyl)thiazole-4-carboxamide] | 0.226
20 | Cn1ncc(NC(=O)c2nc(-c3cc(C#N)ccc3F)sc2N)c1N1CC[C@@H](N)[C@H](F)CC1 [Example 442, 5-amino-N-[5-[(4R,5R)-4-amino-5-fluoro-azepan-1-yl]-1-methyl-pyrazol-4-yl]-2-(5-cyano-2-fluoro-phenyl)thiazole-4-carboxamide] | 1.08
21 | CO[C@@H]1CCN(c2c(NC(=O)c3nc(-c4c(F)cccc4F)sc3N)cnn2C2CC2)CC[C@@H]1N [Example 386, 5-amino-N-(5-((4S,5R)-4-amino-5-methoxyazepan-1-yl)-1-cyclopropyl-1H-pyrazol-4-yl)-2-(2,6-difluorophenyl)thiazole-4-carboxamide] | 0.103
22 | Cc1ccc(F)c(-c2nc(C(=O)Nc3cnn(C)c3N3CCNCC(F)(F)C3)c(N)s2)c1 [Example 105, 5-Amino-N-(5-(6,6-difluoro-1,4-diazepan-1-yl)-1-methyl-1H-pyrazol-4-yl)-2-(2-fluoro-5-methylphenyl)thiazole-4-carboxamide] | 0.019
23 | Cn1ncc(NC(=O)c2nc(-c3ccccc3F)sc2N)c1N1CCNC[C@]2(CCO2)C1 (single isomer, unassigned) [Example 481] | 0.496
24 | Cn1ncc(NC(=O)c2nc(-c3c(F)cccc3F)sc2N)c1N1CCC2(CCNC2=O)CC1 [Example 360, 5-amino-2-(2,6-difluorophenyl)-N-[1-methyl-5-(1-oxo-2,8-diazaspiro[4.5]decan-8-yl)pyrazol-4-yl]thiazole-4-carboxamide] | 0.391
